Experimental data from publication PMC2265061, “Compound Cytotoxicity Profiling Using Quantitative High-Throughput Screening” (Environmental Health Perspectives, 2007).
“Also recorded” adds a separate entry of the source. Read-outs that look alike come from different tables or passages of the source.

Key:
[1] = system: 13 human and rodent cell types; conditions: for Species selectivity of cytotoxicity (human versus rodent cell types): nine human versus four rodent cell types
Source text: Human renal mesangial cells obtained from adult kidney tissue were kindly provided by J. Kopp (National Institute of Diabetes and Digestive and Kidney Diseases, NIH, Bethesda, MD). Rat renal proximal tubule cells were freshly isolated from rat kidney by In Vitro ADMET Laboratories, LLC (Rockville, MD). All cells chosen for testing represent target tissues of interest in toxicology from both human and rodent sources; most were transformed lines, but some were nontransformed or primary cells. All are well-characterized cells, produce uniform populations, are relatively easy to culture, and are amenable to a 1,536-well format.
We measured cell viability using a luciferase-coupled ATP quantitation assay (CellTiter-Glo; Promega, Madison, WI). […] Cells were dispensed at 1,000–2,000 cells/5 μL/well in tissue-culture treated 1,536-well white/solid bottom assay plates (Greiner Bio-One North America, Monroe, NC) using a Flying Reagent Dispenser (Aurora Discovery, Carlsbad, CA). All but Jurkat cells (which are grown in suspension) were incubated at 37°C for 5–6 hr to allow for cell attachment, followed by addition of compounds via pin tool (Kalypsys, San Diego, CA). […] At the end of the incubation period, 5 μL of CellTiter-Glo reagent was added, plates were incubated at room temperature for 30 min, and the luminescence intensity of each well was determined using a ViewLux plate reader (PerkinElmer, Shelton, CT).
(§1) Class 1 or 2 compounds were further divided into subclasses based on efficacy and quality of fit (R^2). Compounds with R^2 > 0.9 and high (> 80%) efficacy were designated as subclass a, and compounds with R^2 > 0.9 and low efficacies (30–80%) as subclass b. […] Compound activity correlations between different assays or experiments were assessed by calculating the Pearson correlation coefficient. Hierarchical clustering of compound activity patterns across different assays was performed within Spotfire DecisionSite 8.2 (Spotfire Inc., Cambridge, MA) using the correlation of log IC50 values as the similarity metric.

NIH 3T3 = assay type: cell-based, Mouse
Method: (§2) We measured cell viability using a luciferase-coupled ATP quantitation assay (CellTiter-Glo; Promega, Madison, WI). In this assay, luminescent signal is proportional to amount of ATP and thus to the number of metabolically competent cells; cell injury and death result in a dramatic decrease in intracellular ATP levels ([Crouch et al. 1993]). Cells were dispensed at 1,000–2,000 cells/5 μL/well in tissue-culture treated 1,536-well white/solid bottom assay plates (Greiner Bio-One North America, Monroe, NC) using a Flying Reagent Dispenser (Aurora Discovery, Carlsbad, CA). All but Jurkat cells (which are grown in suspension) were incubated at 37°C for 5–6 hr to allow for cell attachment, followed by addition of compounds via pin tool (Kalypsys, San Diego, CA). […] At the end of the incubation period, 5 μL of CellTiter-Glo reagent was added, plates were incubated at room temperature for 30 min, and the luminescence intensity of each well was determined using a ViewLux plate reader (PerkinElmer, Shelton, CT).
(§3) Compound formatting and qHTS were performed as described previously ([Inglese et al. 2006]).
(§4) Analysis of compound concentration–response data was performed as previously described ([Inglese et al. 2006]). […] Compound activity correlations between different assays or experiments were assessed by calculating the Pearson correlation coefficient. […]

BJ = conditions: mean ± SD
Method: as §2, §3
as §1, with “Analysis of compound concentration–response data was performed as previously described ([Inglese et al. 2006]). […] Concentration–response titration points for each compound were fitted to the Hill equation ([Hill 1910]), yielding concentrations of half-maximal inhibition (IC50) and maximal response (efficacy) values. […] Class” for “Class”

SK-N-SH = conditions: mean ± SD
Method: as §2, §3
as §1, with “Analysis of compound concentration–response data was performed as previously described ([Inglese et al. 2006]). […] Concentration–response titration points for each compound were fitted to the Hill equation ([Hill 1910]), yielding concentrations of half-maximal inhibition (IC50) and maximal response (efficacy) values. […] Class” for “Class”

Jurkat = conditions: mean ± SD
Method: as §2, §3
as §1, with “Analysis of compound concentration–response data was performed as previously described ([Inglese et al. 2006]). […] Concentration–response titration points for each compound were fitted to the Hill equation ([Hill 1910]), yielding concentrations of half-maximal inhibition (IC50) and maximal response (efficacy) values. […] Class” for “Class”

HUV-EC-C = conditions: mean ± SD
Method: as §2, §3
as §1, with “Analysis of compound concentration–response data was performed as previously described ([Inglese et al. 2006]). […] Concentration–response titration points for each compound were fitted to the Hill equation ([Hill 1910]), yielding concentrations of half-maximal inhibition (IC50) and maximal response (efficacy) values. […] Class” for “Class”

H-4-II-E = conditions: mean ± SD
Method: as §2, §3
as §1, with “Analysis of compound concentration–response data was performed as previously described ([Inglese et al. 2006]). […] Concentration–response titration points for each compound were fitted to the Hill equation ([Hill 1910]), yielding concentrations of half-maximal inhibition (IC50) and maximal response (efficacy) values. […] Class” for “Class”

Mesangial = conditions: mean ± SD
Method: as §2, §3
as §1, with “Analysis of compound concentration–response data was performed as previously described ([Inglese et al. 2006]). […] Concentration–response titration points for each compound were fitted to the Hill equation ([Hill 1910]), yielding concentrations of half-maximal inhibition (IC50) and maximal response (efficacy) values. […] Class” for “Class”

N2a = conditions: mean ± SD
Method: as §2, §3
as §1, with “Analysis of compound concentration–response data was performed as previously described ([Inglese et al. 2006]). […] Concentration–response titration points for each compound were fitted to the Hill equation ([Hill 1910]), yielding concentrations of half-maximal inhibition (IC50) and maximal response (efficacy) values. […] Class” for “Class”

[2] = system: Rat kidney proximal tubule; conditions: mean ± SD
Method: as §2, §3
as §1, with “Analysis of compound concentration–response data was performed as previously described ([Inglese et al. 2006]). […] Concentration–response titration points for each compound were fitted to the Hill equation ([Hill 1910]), yielding concentrations of half-maximal inhibition (IC50) and maximal response (efficacy) values. […] Class” for “Class”

SH-SY5Y = system: SH-SY5Y
Method: as §2, §3
as §1, with “Analysis of compound concentration–response data was performed as previously described ([Inglese et al. 2006]). […] Concentration–response titration points for each compound were fitted to the Hill equation ([Hill 1910]), yielding concentrations of half-maximal inhibition (IC50) and maximal response (efficacy) values. […] Class” for “Class”

HepG2 = conditions: HepG2, mean ± SD
Method: as §2, §3
as §1, with “Analysis of compound concentration–response data was performed as previously described ([Inglese et al. 2006]). […] Concentration–response titration points for each compound were fitted to the Hill equation ([Hill 1910]), yielding concentrations of half-maximal inhibition (IC50) and maximal response (efficacy) values. […] Class” for “Class”

MRC-5 = conditions: MRC-5, mean ± SD
Method: as §2, §3
as §1, with “Analysis of compound concentration–response data was performed as previously described ([Inglese et al. 2006]). […] Concentration–response titration points for each compound were fitted to the Hill equation ([Hill 1910]), yielding concentrations of half-maximal inhibition (IC50) and maximal response (efficacy) values. […] Class” for “Class”

HEK293 = assay type: cell-based
Method: as §2, §3, §4

HepG2 cells = assay: Real-time cell electronic sensing (RT-CES) cytotoxicity assay; assay type: cell-based, Human; conditions: HepG2, RT-CES impedance, 0.14 to 100 μM
Method: HepG2 cells in the presence of compounds at concentrations from 0.14 to 100 μM were monitored by measurements of electrical impedance (ACEA Biosciences Inc., San Diego, CA) every 10 min for the first hour, then every hour for 70–90 hr.

CN(C)c1ccc(N=Nc2ccccc2)cc1 [dimethylaminoazobenzene]
Species selectivity of cytotoxicity (human versus rodent cell types) [1]: more toxic to rodent cells

CC/C(=C(\c1ccccc1)c1ccc(OCCN(C)C)cc1)c1ccccc1 [tamoxifen]
Hill coefficient (NIH 3T3; NIH 3T3, mean ± SD): 2.6 ± 0.8
Hill coefficient (BJ): 3.1 ± 1.0
Hill coefficient (SK-N-SH): 3.4 ± 0.7
Hill coefficient (Jurkat): 2.0 ± 0.2
Hill coefficient (HUV-EC-C): 4.2 ± 0.5
Hill coefficient (H-4-II-E): 2.7 ± 0.8
Hill coefficient (Mesangial): 2.4 ± 0.8
Hill coefficient (N2a): 4.0 ± 0.8
Hill coefficient [2]: 4.7 ± 0.3
Hill coefficient (SH-SY5Y; SH-SY5Y, mean ± SD): 3.1 ± 0.7
Hill coefficient (HepG2): 4.4 ± 0.5
Hill coefficient (MRC-5): 2.9 ± 1.2
Hill coefficient (HEK293; HEK293, mean ± SD): 3.8 ± 1.0

Cl.N=C1C=CC(=C(c2ccc(N)cc2)c2ccc(N)cc2)C=C1 [pararosaniline hydrochloride]
Cytotoxicity pattern across the 13 cell types ([1]; 0.59 nM to 92 μM, 40 hr): cytotoxicity in all cell types at similar concentrations

CC(=O)[O][Hg][c]1ccccc1 [phenyl mercuric acetate]
Cytotoxicity pattern across the 13 cell types [1]: uniformly toxic across all cell types

C[C@@H]1CC[C@@]2(OC1)O[C@H]1[C@@H](O)[C@H]3[C@@H]4CC[C@H]5C[C@@H](O[C@@H]6O[C@H](CO)[C@H](O[C@@H]7O[C@H](CO)[C@@H](O)[C@H](O[C@@H]8OC[C@@H](O)[C@H](O)[C@H]8O)[C@H]7O[C@@H]7O[C@H](CO)[C@H](O)[C@H](O[C@@H]8O[C@H](CO)[C@@H](O)[C@H](O)[C@H]8O)[C@H]7O)[C@H](O)[C@H]6O)[C@H](O)C[C@]5(C)[C@H]4CC[C@]3(C)[C@H]1[C@@H]2C [digitonin]
Exposure time to full cytotoxicity (HepG2 cells): 10 min
Cytotoxicity pattern across the 13 cell types ([1]; 0.59 nM to 92 μM, 40 hr): cytotoxicity in all cell types at similar concentrations; also recorded: cytotoxic in all 13 cell types; also recorded: uniformly toxic across all cell types

CN(C)c1ccc(C(=C2C=CC(=[N+](C)C)C=C2)c2ccc(N(C)C)cc2)cc1.[Cl-] [hexamethyl-p-rosaniline chloride]
Cytotoxicity pattern across the 13 cell types [1]: cytotoxicity in all cell types at similar concentrations

C[C@@H]1C[C@@H]([C@H](O)CC2CC(=O)NC(=O)C2)C(=O)[C@@H](C)C1 [cycloheximide]
Kinetic response (cell index over time) (HepG2 cells): inhibited cell proliferation but did not decrease cell number below what was present at the time of addition
Cytotoxicity pattern across the 13 cell types ([1]; human, rat, mouse): cytotoxic in all but two cell types (MRC-5 and SH-SY5Y)

Cc1ccc2c(c1[N+](=O)[O-])C(=O)c1ccccc1C2=O [2-methyl-1-nitroanthraquinone]
Cell type-selective toxicity (HEK293; in HEK293 cells): selective toxicity

[K+].[K+].[O]=[Cr](=[O])([O-])[O][Cr](=[O])(=[O])[O-] [potassium dichromate]
Exposure time to complete cytotoxicity (HepG2 cells): 35 h
Cytotoxicity pattern across the 13 cell types [1]: cytotoxic in all 13 cell types

C[C@H]1O[C@@H](O[C@H]2[C@@H](O)C[C@H](O[C@H]3[C@@H](O)C[C@H](O[C@H]4CC[C@@]5(C)[C@H](CC[C@@H]6[C@@H]5C[C@@H](O)[C@]5(C)[C@@H](C7=CC(=O)OC7)CC[C@]65O)C4)O[C@@H]3C)O[C@@H]2C)C[C@H](O)[C@@H]1O [digoxin]
Species selectivity of cytotoxicity (human versus rodent cell types) [1]: more toxic to human cells

CN(C)C(=S)SSC(=S)N(C)C [tetra-methylthiuram disulfide]
Potency in SH-SY5Y relative to the next most responsive cell type (SH-SY5Y; more potent in SH-SY5Y): 250 fold

COc1cccc2c1C(=O)c1c(O)c3c(c(O)c1C2=O)C[C@@](O)(C(=O)CO)C[C@@H]3O[C@H]1C[C@H](N)[C@H](O)[C@H](C)O1 [doxorubicin]
Exposure time to complete cytotoxicity (HepG2 cells): 35 h
Cytotoxicity pattern across the 13 cell types ([1]; 0.59 nM to 92 μM, 40 hr): toxic in all cell types; also recorded: cytotoxic in all 13 cell types

O=C(Nc1ccccc1)Nc1ccccc1 [diphenylurea]
Species selectivity of cytotoxicity (human versus rodent cell types) [1]: toxicity in cells from one species but not the other

CN(C)c1ccc(C(=C2C=CC(=[N+](C)C)C=C2)c2ccccc2)cc1.CN(C)c1ccc(C(=C2C=CC(=[N+](C)C)C=C2)c2ccccc2)cc1.O=C(O)C(=O)O.O=C([O-])C(=O)O.O=C([O-])C(=O)O [malachite green oxalate]
Cytotoxicity pattern across the 13 cell types [1]: cytotoxicity in all cell types at similar concentrations

[CH3][Hg][Cl] [methyl mercuric (II) chloride]
Potency in NIH 3T3 relative to the next most responsive cell type (NIH 3T3): 50 fold
